The test system of series [1] is rats subjected to middle cerebral artery occlusion (MCAO). The note with it: for infarction volume relative to vehicle injected rats: assayed 24 h after MCAO. The source says: Male Wistar rats, 250-350 g, were obtained from Charles River (Wilmington, Mass.). Animals were housed and cared for in the Animal Resource Center and allowed free access to food and water before and after surgery. All procedures were approved by the Institutional Animal Care and Use Committee of Case Western Reserve University.
A 4.0 nylon suture with a flame rounded tip was advanced through the internal carotid artery to occlude the MCA while cerebral blood flow was monitored using laser doppler (Perimed AB, Jarfalla, Sweden). At the time of reperfusion rats were again anesthetized and the suture removed with cerebral blood flow monitoring to ensure reperfusion. Arterial blood pressure, arterial blood gases and temperature were all monitored and controlled during the length of the procedure.
Control animals were injected with 0.1 ml DMSO.
Rats were euthanized by exposure to 5% halothane until breathing ceased. They then underwent intracardiac perfusion first with PBS and then with 4% paraformaldehyde. Brains were isolated and immersion fixed in 4% paraformaldehyde overnight. Tissue was cryoprotected in 30% sucrose in PBS. Twenty micron frozen sections were collected every […] beginning at the level of the forceps minor corpus callosum and extending through the hippocampus. Sections were stained with Thionin and the area of infarction measured using Bioquant computer software (R&M Biometrics, Nashville, Tenn.) by subtracting the uninfarcted tissue in the ischemic hemisphere from the volume of the contralateral hemisphere. This method corrects for post-ischemic edema.
Male Wistar rats, 250-350 g, were obtained from Charles River (Wilmington, Mass.). […] Animals were housed and cared for in the Animal Resource Center and allowed free access to food and water before and after surgery. […] The tail artery was exposed and cannulated to measure mean arterial blood pressure and to obtain blood for blood gas measurements during surgery. Animals in which normal temperature, blood pressure and gases could not be maintained were excluded from the study. MCAO was performed as previously described. Briefly, the bifurcation of the common carotid artery was exposed. The external carotid artery was isolated and a suture placed 0.5 cm from the bifurcation. Following electrocoagulation distal to the suture the external carotid was cut between the suture and the electrocoagulated segment. A suture was applied to the common carotid artery such that it could be removed later. A loop of suture was then placed under the internal carotid artery and the artery elevated to transiently occlude blood flow. A small nick was made in the wall of the external carotid artery. Through this nick a 22 mm length of 4.0 Ethicon suture, its tip rounded by heating near a flame, was gently threaded from the external to the internal carotid artery lumen to a distance of 18 mm from the bifurcation of the carotid. The thread was held in place with a suture around the stump of the external carotid artery and the suture around the internal carotid artery released. The catheter was removed from the tail artery and both incisions were closed. The rats were then allowed to recover from anesthesia. […] The neck incision was reopened and the 4.0 Ethicon suture removed. The suture that held it in place was tightened and the suture around the common carotid artery was removed. After confirmation of reperfusion by visual inspection, the incision was closed and the animal allowed to recover.
Twenty micron frozen sections of paraformaldehyde fixed brains were collected every 1000 μm beginning at the level of the forceps minor corpus callosum and extending through the hippocampus. The slides were stained with Thionin. The sections were then trans-illuminated and the image transmitted to a computer screen.

Series [2] deals with 3T3-L1 cells. The note with it: cited from earlier work.
Series [3] has as its system dopaminergic cell death. The note with it: Parkinson's disease model; cited from earlier work.
Series [4] has as its system ICAM. Kind of series: ICAM immunohistochemistry of brain sections after MCAO. In kind it is in vivo, rat. The note with it: rosiglitazone 0.1 mg/kg or pioglitazone 1 mg/kg 24 h before and at time of MCAO; sacrificed 24 h later.
Excerpt: Animals were euthanized and brains prepared in the same manner described for infarct volume determination. Frozen sections of the brains were cut coronally at ten microns. Sections were collected every 1000 mm beginning at the level of the forceps minor corpus callosum and extending through the hippocampus. Ten micron cryostat sections were labeled using either mouse anti-ICAM (Sertec, UK) or rabbit antimyeloperoxidase (Dacko) antibodies in 5% rat serum. Primary antibodies were visualized using either goat anti-mouse conjugated to Oregon Green or goat anti-rabbit conjugated to Oregon-Green (Molecular Probes, Eugene, Oreg.) in 5% rat serum. Adjacent sections were incubated without primary antisera to control for non-specific binding of the secondary antiserum. Sections were viewed using a fluorescent microscope and images acquired and stored using Spot Advanced imaging software (Spot Image Corporation, Chantilly, Va.). Some sections were also imaged using confocal microscopy.
The conditions of series [5]: two hour continuous monitoring; previously shown; cited from earlier work.
Series [6] relates to ICAM mRNA. Briefly: ICAM mRNA by real time PCR after MCAO. In kind it is in vivo, rat. Particulars: rosiglitazone 0.1 mg/kg or pioglitazone 1 mg/kg 24 h before and at time of 2 hour MCAO; sacrificed 24 h later. For orientation: In qPCR the cycle at which signal appears reflects the starting amount.
Series [7] has as its system rodent models of cerebral ischemia. Particulars: cited from earlier work.
The subject of series [8] is myeloperoxidase-IR cells. Briefly: Quantification of myeloperoxidase-IR cells (leukocyte infiltration) after MCAO. In kind it is in vivo, rat.
Excerpt: Frozen sections of the brains were cut coronally at ten microns. Sections were collected every 1000 mm beginning at the level of the forceps minor corpus callosum and extending through the hippocampus. Ten micron cryostat sections were labeled using either mouse anti-ICAM (Sertec, UK) or rabbit antimyeloperoxidase (Dacko) antibodies in 5% rat serum. Primary antibodies were visualized using either goat anti-mouse conjugated to Oregon Green or goat anti-rabbit conjugated to Oregon-Green (Molecular Probes, Eugene, Oreg.) in 5% rat serum. Adjacent sections were incubated without primary antisera to control for non-specific binding of the secondary antiserum. Sections were viewed using a fluorescent microscope and images acquired and stored using Spot Advanced imaging software (Spot Image Corporation, Chantilly, Va.). […]
Myeloperoxidase-IR cells were quantified from cryostat sections through the maximal area of infarction labeled with rabbit anti-myeloperoxidase antibody followed by anti-rabbit antibodies conjugated to Oregon-green. Digital photographs of high powered fields covering a representative section were analyzed in Adobe Photoshop by overlaying a grid and counting all myeloperoxidase-IR cells. The average number of myeloperoxidase-IR cells per high powered field (360 μm2) was calculated and plotted using data from at least three animals.
For series [9], the system named is LPL mRNA. Kind of series: Lipoprotein lipase (LPL) mRNA by real time PCR after MCAO. The class given is in vivo, rat. The note with it: rosiglitazone 0.1 mg/kg, pioglitazone 1.0 mg/kg; 24 h before and at time of 2 hour MCAO; tissue 24 h later. The source says: At the time of sacrifice the animal was placed in an anesthesia chamber and exposed to 5% halothane, 30% oxygen, 65% nitrous oxide until it ceased breathing. The rat was the, processed for either histologic and immunocytochemical analysis or decapitated and the brain immediately dissected for mRNA isolation. Animals used for immunohistochemistry underwent intracardiac perfusion; the thoracic cavity was opened, a blunt needle placed through the left ventricle into the aorta and the right atrium cut. Animals were perfused through the heart, first with 0.1 M phosphate buffer and then with 4% paraformaldehyde (pH 7.4). The brain was removed from the rat and immersion fixed in 4% paraformaldehyde for an additional hour. Tissue was then transferred to 30% sucrose in phosphate buffer in order to cyroprotect it. Brains were mounted in OCT sectioning medium and frozen sections cut at either twenty microns (for infarct volume determination) or ten microns (for immunocytochemistry). Animals used in real time PCR experiments were decapitated after euthanasia and the brain quickly removed.
A 2 mm thick coronal slice of tissue through the area of maximal infarction was quickly homogenized in Trizol (Gibco BRL, Rockville, Md.). […] RNA was isolated using Life Technologies Protocol (Rockville, Md.), and cDNA synthesized from 1.5 μg of total RNA. […]

Molecules are shown by their SMILES. “Also recorded” adds a separate entry of the source. Read-outs that look alike come from different tables or passages of the source.

These results are taken from patent US20100331330A1, “METHODS AND COMPOSITIONS FOR TREATING ISCHEMIC STROKE” (priority 2006, published 2010).

In the case of `CCc1ccc(CCOc2ccc(CC3SC(=O)NC3=O)cc2)nc1` (stereo not shown) [pioglitazone, 5-[4-[2-(5-ethylpyridin-2-yl)ethoxyl]benzyl]thiazolidine-2,4-dione], the “infarction volume relative to vehicle injected rats” value is reported as “did not significantly reduce infarction volume” in series [1] (0.5 mg/kg IP 24 h before and at time of 2 hour MCAO); “significantly reduced infarction size” in [1] (1 mg/kg IP 24 h before and at time of 2 hour MCAO); “did significantly reduce infarction volume; also recorded: significantly reduced infarction volume” in series [1] (1 mg/kg IP 24 h before and at time of 2 hour MCAO, listed as Pioglitazone); “did significantly reduce infarction volume” in [1] (3.5 mg/kg IP 24 h before and at time of 2 hour MCAO); “protection was lost” in [1] (7 mg/kg IP 24 h before and at time of 2 hour MCAO). In addition, the “infarct volume compared to vehicle treated rats” value in series [1] (1 mg/kg IP 1 hour after onset of 2 hour MCAO) was “significantly reduce infarction volume; also recorded: significantly reduced”; in series [1] (1 mg/kg IP 6 hours after onset of 2 hour MCAO), “not when given three or six hours after MCAO; also recorded: no significant change in infarct volume”; in series [1] (pioglitazone 1 mg/kg or rosiglitazone 0.1 mg/kg 3 hours after MCAO onset, reperfusion at 2 hours (before treatment)), “not when given three or six hours after MCAO; also recorded: infarction volumes which were similar to animals injected with vehicle; also recorded: no significant change in infarct volume; also recorded: infarction volumes similar to those previously seen in untreated and vehicle treated rats”. Further, the “infarction volume relative to vehicle treated rats” value in series [1] (1 mg/kg IP 24 h before and at time of MCAO, permanent occlusion, listed as Pioglitazone) is “no significant protection was evident”. Moreover, the “optimal dose for neuroprotection” value in series [1] (IP 24 h before and at time of 2 hour MCAO, infarct volume 24 h after MCAO) is listed as 1 mg/kg. For the same compound, the “infarction volume relative to rats reperfused at two hours” value in series [1] (pioglitazone 1 mg/kg or rosiglitazone 0.1 mg/kg 3 hours after MCAO onset, reperfusion at 3 hours 15 minutes (after treatment)) is “neuroprotective when given up to three hours after MCAO, but only if reperfusion occurs after treatment; also recorded: significantly smaller infarctions volumes; also recorded: significantly reduced infarction volumes”. Also, the “effect on PPARγ-corepressor complex” value in [2] was “dissociation of the PPARγ-corepressor complex and transcriptional activation”. Besides, in [3], the dopaminergic cell death entry is given as “attenuates dopaminergic cell death”. For the same compound, in series [4], the “ICAM-IR in brain sections compared with vehicle treated rats” value is “less is seen”. Also, the cerebral blood flow result in series [5] is “no significant change in cerebral blood flow”. The “ICAM mRNA compared with vehicle treated rats” value in [6] is reported as “significant reduction in ICAM mRNA”. For the same compound, in series [7] (in vivo), the “neuroprotection in rodent models of cerebral ischemia” value was “effective neuroprotective agents”. In addition, the “efficacy of oral pretreatment” value in [7] (permanent ischemia) is listed as “but not permanent ischemia”; in [7] (transient ischemia), “effective in transient”. Moreover, the “myeloperoxidase-IR cells within the ischemic hemisphere” value in [8] (reperfused at 2 h and treated at 3 h, relative to treated at 3 h and reperfused at 3.25 h) is “significantly increased numbers of myeloperoxidase-IR cells”. The “number of myeloperoxidase-IR cells per high powered field” value in [8] (rosiglitazone 0.1 mg/kg or pioglitazone 1 mg/kg at 3 h, reperfusion delayed to 3.25 h, relative to reperfusion at 2 h) is listed as “significantly reduced”. For the same compound, the “increase in LPL mRNA levels within the ischemic hemisphere” value in series [9] worked out at 307%.
